Measured values from patent publication US20220288148A1, “METHODS FOR RELIEVING BACK PAIN WITH TERMINALIA CHEBULA COMPOSITIONS” (Natreon, Inc., priority 2021, published 2022).

Columns and labels:
low back pain = test: Case reports of human subjects with low back pain (Examples 2-5); type: in vivo; conditions: before AyuFlex
Experimental: Several human subjects suffering from back pain were administered an effective amount of a T. chebula composition according to the present invention (AyuFlex®, an aqueous extract of T. chebula fruit in powdered and standardized form, orally administered in a capsule containing 500 mg of the extract). […] Subject weights ranged from 54.5 kg to 72.7 kg, and daily doses ranged from 500 mg to 2000 mg per day of AyuFlex®, which may be calculated at a dose range of about 6.88 mg AyuFlex®/kg body weight of a subject to about 36.7 mg AyuFlex®/kg body weight of a subject.
Prior to administration of AyuFlex®, the subject reported a history of suffering from chronic low back pain, described by the subject as sciatic pain, as well as from patellar tendonitis, for the past ten years. The subject indicated their belief that the low back pain was due to a very active lifestyle that included lifting heavy weights. They previously attempted to relieve the chronic low back pain with numerous rounds of physical therapy and rehab-based regimens, but was only provided with temporary relief until they resumed exercise.
The subject began oral administration of 2 (two) 500 mg AyuFlex® capsules daily to treat their low back pain.
Prior to administration of AyuFlex®, the subject reported a history of back pain described by the subject as sciatic pain, beginning when they were young. They were a gymnast for many years, and as a result injured their back. They were diagnosed with small compression fractures and disk bulges in their lower back. Throughout their teen years, the subject underwent intermittent physical therapy, and also sought treatment from a chiropractor for two years. Although the subject reported some temporary relief from these treatments, their pain was not resolved.
The subject further reported that, due to lack of exercise over the years, their sciatic pain became extremely severe. […] Within a month of the onset of these severe symptoms, the subject described having only one or two days where […] was pain-free. […] reported relying heavily on acetaminophen (Tylenol®) and ibuprofen (Advil®) to ease their pain, as they were often not able to sleep due to the sharp sciatic pain. […] Along with the sciatic pain, for a few months before beginning administration of Ayuflex®, the subject reported experiencing stiffness in […] lower back as well. […] reported needing to bend their back to walk for a few minutes after they would stand.
The subject began oral administration of Ayuflex®, taking a 500 mg capsule twice daily for about 2 months, and then recently chose to increase the dosage to 1000 mg (2 capsules) twice daily. […]

[1] = system: collagen-induced arthritis; conditions: mice with collagen-induced arthritis; cited from earlier work
[2] = system: subjects with hyperuricemia; conditions: cited from earlier work

Structure (SMILES)	subject-reported pain relief by prior analgesics (low back pain; Example 3 subject)	subject-reported pain relief by prior analgesics (low back pain; Example 5 subject)	also measured
CC(=O)Nc1ccc(O)cc1 [acetaminophen]	only relieved their pain for a few hours	only relieved the pain for a few hours	–
O=C(O)C[C@@H]1C(=O)O[C@H]2[C@H](OC(=O)c3cc(O)c(O)c(O)c3)[C@@H](OC(=O)c3cc(O)c(O)c4c3[C@H]1[C@H](O)C(=O)O4)[C@H](OC(=O)c1cc(O)c(O)c(O)c1)O[C@@H]2COC(=O)c1cc(O)c(O)c(O)c1 [chebulinic acid]	–	–	conclusion on anti-VEGF antiangiogenic action for inflammatory arthritis [1]: safe and potent anti-VEGF antiangiogenic agent
Cc1nc(-c2ccc(OCC(C)C)c(C#N)c2)sc1C(=O)O [febuxostat]	–	–	reduction in mean serum uric acid levels compared to baseline ([2]; as early as 4 weeks, T. bellerica 500 and 250 mg BID, febuxostat 40 mg, T. chebula 500 mg BID): Significant reduction; serum uric acid levels, baseline ([2]; baseline, T. bellerica 500 mg BID, febuxostat 40 mg once daily, in mg/dL (unit assumed)): 8.53±0.97; serum uric acid levels at the end of 24 weeks ([2]; end of 24 weeks, T. bellerica 500 mg BID, febuxostat 40 mg once daily, in mg/dL (unit assumed)): 4.28±0.67
CC(C)Cc1ccc(C(C)C(=O)O)cc1 (centres unmarked) [ibuprofen]	only relieved their pain for a few hours	only relieved the pain for a few hours	–
